Activity calls are given as the source filed them.
Experiments:
[1] = growth inhibition of yeast DHODH-expressing 3D7 parasites – SYBR Green, dry powder samples, dose response (AID 1159570); assay type: functional, cell-based;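 also: parasite growth measured after 72 hours of compound exposure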
[2] = P. falciparum Dd2 growth inhibitors, dose response, SYBR Green, cherry-picked samples (AID 1159567); assay type: functional, cell-based
[3] = Dd2 malaria parasite growth inhibition potency – SYBR Green, dry powder samples, dose response (AID 1159566); assay type: functional, cell-based;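 also: potency for growth inhibition with lower SYBR green DNA signal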
[4] = toxicity to human HepG2 hepatoma cells – cell-based, plate reader, dry powder samples, cytotoxicity control, dose response (AID 1159569); assay type: functional;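 also: inhibitor potency with signal falling toward the positive control level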
[5] = growth inhibition of PfATP4-mutant resistant parasites – NITD609-resistant line, SYBR Green, dry powder, dose response (AID 1159571); assay type: functional, cell-based;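 also: parasites synchronized at ring stage by sorbitol before testing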
[6] = target: T1, Tyrosine-protein phosphatase non-receptor type 7 (Homo sapiens, UniProt P35236); assay: HePTP tyrosine phosphatase activity blockers – biochemical, absorbance, leukemia target, primary screen (AID 521); assay type: functional
T1 sequence (P35236 whole entry): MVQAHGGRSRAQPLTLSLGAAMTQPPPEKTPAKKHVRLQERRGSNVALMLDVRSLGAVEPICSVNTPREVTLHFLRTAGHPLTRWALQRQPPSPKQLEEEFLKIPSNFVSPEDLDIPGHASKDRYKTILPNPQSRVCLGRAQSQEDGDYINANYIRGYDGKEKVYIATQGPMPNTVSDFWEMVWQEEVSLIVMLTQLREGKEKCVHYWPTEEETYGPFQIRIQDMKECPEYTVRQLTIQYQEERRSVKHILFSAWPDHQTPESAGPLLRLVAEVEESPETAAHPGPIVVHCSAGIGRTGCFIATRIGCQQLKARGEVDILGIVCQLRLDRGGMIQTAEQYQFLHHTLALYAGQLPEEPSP

[7] = viability of PTEN-deleted HCT116 cells – cell-based, HCT116 PTEN knockout, dose response (AID 1047); assay type: functional;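 also: HCT116 colon tumor cells with PTEN knocked out; cells exposed to compound for 60 hours before readout; potency for loss of cell viability measured by luminescence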
[8] = HPDE-C7 pancreatic duct cell viability loss – fluorescence, HTS (AID 430); assay type: functional, cell-based; settings: Homo sapiens
[9] = viability loss of HPDE-C7K cells – cell-based, fluorescence, HTS, primary screen (AID 431); assay type: functional; settings: Homo sapiens
[10] = viability of HCT116 lacking mutant beta-catenin – cell-based, human colon tumor, dose response (AID 1045); assay type: functional;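 also: HCT116 colon tumor cells with beta catenin knocked out; cells exposed to compound for 60 hours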
[11] = target: T2, Calpain-2 catalytic subunit (Sus scrofa, UniProt P43367); assay: m-calpain protease blockers, concentration series – biochemical, fluorogenic peptide substrate, dose response (AID 1420); assay type: functional
T2 sequence (P43367 whole entry): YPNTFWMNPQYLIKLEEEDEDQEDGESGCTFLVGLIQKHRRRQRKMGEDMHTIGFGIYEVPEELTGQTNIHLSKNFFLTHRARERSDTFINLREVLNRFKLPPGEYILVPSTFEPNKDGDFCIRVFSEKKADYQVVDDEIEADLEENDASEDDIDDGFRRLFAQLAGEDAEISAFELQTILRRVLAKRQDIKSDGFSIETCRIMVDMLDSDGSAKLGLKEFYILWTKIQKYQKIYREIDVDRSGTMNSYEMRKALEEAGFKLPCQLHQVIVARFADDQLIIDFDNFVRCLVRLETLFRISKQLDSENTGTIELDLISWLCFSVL

Leucine aminopeptidase = target: T3, Leucine aminopeptidase (Plasmodium falciparum 3D7, UniProt Q8IL11); assay: P. falciparum M17LAP inhibitors, primary screen, biochemical, fluorogenic H-Leu-NHMec substrate, 1536-well (AID 1619); assay type: functional
T3 sequence (Q8IL11 whole entry): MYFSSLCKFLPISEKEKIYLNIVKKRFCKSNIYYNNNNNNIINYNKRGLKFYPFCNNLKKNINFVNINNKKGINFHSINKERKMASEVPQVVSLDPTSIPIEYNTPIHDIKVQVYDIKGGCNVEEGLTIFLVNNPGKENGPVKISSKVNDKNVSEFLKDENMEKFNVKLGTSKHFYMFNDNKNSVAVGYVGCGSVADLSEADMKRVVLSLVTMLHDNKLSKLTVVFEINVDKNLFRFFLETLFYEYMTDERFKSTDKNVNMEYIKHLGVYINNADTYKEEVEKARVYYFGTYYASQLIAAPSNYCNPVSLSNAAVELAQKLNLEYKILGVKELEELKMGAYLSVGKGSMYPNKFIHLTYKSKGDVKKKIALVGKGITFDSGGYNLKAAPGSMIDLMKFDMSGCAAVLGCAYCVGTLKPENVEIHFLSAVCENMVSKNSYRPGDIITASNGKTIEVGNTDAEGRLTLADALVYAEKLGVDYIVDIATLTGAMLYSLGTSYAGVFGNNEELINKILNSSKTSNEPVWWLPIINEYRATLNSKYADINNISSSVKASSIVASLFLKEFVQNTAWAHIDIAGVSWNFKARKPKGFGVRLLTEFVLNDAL

[12] = target: T4, Replicative DNA helicase DnaB (Mycobacterium tuberculosis, UniProt P9WMR3); assay: DnaB intein splicing inhibitors, dose response, biochemical, cell-free fluorescence (AID 449749); assay type: functional
T4 sequence (P9WMR3 whole entry): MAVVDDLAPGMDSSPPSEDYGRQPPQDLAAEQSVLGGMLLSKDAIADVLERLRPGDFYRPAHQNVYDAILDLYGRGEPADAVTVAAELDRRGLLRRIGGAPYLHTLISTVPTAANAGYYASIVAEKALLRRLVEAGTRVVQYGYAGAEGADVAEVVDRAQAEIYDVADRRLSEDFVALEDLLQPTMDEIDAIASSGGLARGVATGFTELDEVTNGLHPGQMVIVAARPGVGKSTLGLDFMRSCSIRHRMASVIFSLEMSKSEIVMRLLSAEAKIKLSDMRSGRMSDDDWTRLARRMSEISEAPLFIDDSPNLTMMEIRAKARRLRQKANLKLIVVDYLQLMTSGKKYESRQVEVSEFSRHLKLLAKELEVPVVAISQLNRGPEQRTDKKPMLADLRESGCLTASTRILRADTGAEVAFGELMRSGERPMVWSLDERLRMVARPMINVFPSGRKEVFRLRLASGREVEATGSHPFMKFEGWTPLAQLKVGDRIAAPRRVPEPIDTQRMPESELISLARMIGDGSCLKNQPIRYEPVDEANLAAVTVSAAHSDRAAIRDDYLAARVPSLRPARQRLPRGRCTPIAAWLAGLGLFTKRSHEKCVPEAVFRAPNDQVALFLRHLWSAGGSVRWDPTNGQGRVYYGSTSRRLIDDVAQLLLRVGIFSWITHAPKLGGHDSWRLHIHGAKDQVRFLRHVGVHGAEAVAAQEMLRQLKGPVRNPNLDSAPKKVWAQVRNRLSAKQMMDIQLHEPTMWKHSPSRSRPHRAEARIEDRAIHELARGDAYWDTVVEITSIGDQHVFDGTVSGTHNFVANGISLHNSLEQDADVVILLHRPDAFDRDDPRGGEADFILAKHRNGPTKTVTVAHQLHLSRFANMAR

Protein RecA = target: T5, Protein RecA (Mycobacterium tuberculosis, UniProt P9WHJ3); assay: Fluorescence Cell-Free Homogeneous Dose Retest to Identify Inhibitors of RecA-Intein Splicing Activity. [Related pubchem assays (depositor defined):AID2097, AID2223, AID489010, AID492950]; assay type: functional
T5 sequence (P9WHJ3 whole entry): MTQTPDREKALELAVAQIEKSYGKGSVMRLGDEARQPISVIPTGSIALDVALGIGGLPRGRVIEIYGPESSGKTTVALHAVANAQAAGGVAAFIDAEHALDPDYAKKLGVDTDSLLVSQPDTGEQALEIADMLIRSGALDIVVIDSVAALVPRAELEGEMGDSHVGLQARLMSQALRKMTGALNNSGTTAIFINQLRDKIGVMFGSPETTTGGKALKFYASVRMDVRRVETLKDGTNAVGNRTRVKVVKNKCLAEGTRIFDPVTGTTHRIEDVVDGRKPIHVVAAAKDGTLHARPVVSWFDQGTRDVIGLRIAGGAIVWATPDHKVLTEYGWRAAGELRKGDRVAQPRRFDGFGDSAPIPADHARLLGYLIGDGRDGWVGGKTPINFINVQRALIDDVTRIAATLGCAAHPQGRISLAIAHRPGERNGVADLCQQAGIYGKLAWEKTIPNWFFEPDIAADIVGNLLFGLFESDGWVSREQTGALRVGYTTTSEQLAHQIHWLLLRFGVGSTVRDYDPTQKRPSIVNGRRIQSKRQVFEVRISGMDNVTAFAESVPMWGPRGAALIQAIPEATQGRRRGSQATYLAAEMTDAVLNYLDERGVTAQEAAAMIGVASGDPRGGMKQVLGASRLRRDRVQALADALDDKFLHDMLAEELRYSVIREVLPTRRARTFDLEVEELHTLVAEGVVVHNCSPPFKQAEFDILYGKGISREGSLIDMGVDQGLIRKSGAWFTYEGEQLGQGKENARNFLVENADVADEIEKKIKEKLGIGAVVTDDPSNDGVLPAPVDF

Caspase-6 = target: T6, Caspase-6 (Homo sapiens, UniProt P55212); assay: inhibition of CASP6 peptide cleavage – biochemical, VEID-R110 fluorescence, cherry-pick, dose response (AID 720632)
T6 sequence (P55212 whole entry): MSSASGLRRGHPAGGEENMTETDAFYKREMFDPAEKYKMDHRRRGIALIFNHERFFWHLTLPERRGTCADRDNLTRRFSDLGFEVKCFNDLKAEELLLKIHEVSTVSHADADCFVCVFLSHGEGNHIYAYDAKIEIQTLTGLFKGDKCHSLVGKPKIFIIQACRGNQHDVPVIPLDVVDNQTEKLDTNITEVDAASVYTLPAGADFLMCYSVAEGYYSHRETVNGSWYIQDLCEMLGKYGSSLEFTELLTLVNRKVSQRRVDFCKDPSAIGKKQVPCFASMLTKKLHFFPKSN

## C[C@H]1CN([C@@H](C)CO)C(=O)c2ccccc2-c2ccccc2CO[C@@H]1CN(C)C(=O)Nc1ccc(-c2ccccc2)cc1
[1]
  AC50: 1.35 µM (active)
[2]
  AC50: 1.77 µM (active)
[3]
  AC50: 0.723 µM (active)
[4]
  AC50: > 100 µM (inactive)
[5]
  AC50: 1.56 µM (active)

## O=C(Nc1ccccn1)c1cccc(S(=O)(=O)N2CCCCC2)c1
[6]
  IC50: > 100 µM (not active)

## Cc1cc(-c2nnc3n2N=C(c2ccc(-c4ccccc4)cc2)CS3)[nH]n1
[7]
  EC50: 15.9 µM (active)
[8]
  EC50: 15.2 µM (active)
[6]
  IC50: > 100 µM (not active)
[9]
  EC50: 16.1 µM (active)
[10]
  EC50: 13.7 µM (active)

## O=C(Nc1ccc(Cl)c(Cl)c1)OCCNC(=O)c1cccc(Cl)c1
[11]
  IC50: 2.99 µM (not active)

## COC(=O)c1ccccc1NC(=O)N1CCN(c2ccc(F)cc2)CC1
[11]
  IC50: 8.67 µM (not active)

## CC(C)c1ccc(NC(S)=NC2CC3C=CC2C3)cc1 (centres undefined)
[11]
  IC50: 42.5 µM (not active)

## O=C(O)C1CC=CCC1C(=O)Nc1ccc(F)c(F)c1 (centres undefined)
[6]
  IC50: > 100 µM (not active)
Leucine aminopeptidase
  IC50: 20.4 µM (active)

## CC1=NN(c2ccc(S(=O)(=O)O)cc2Cl)C(=O)C1
[12]
  AC50: 4.45 µM (active)
Protein RecA
  EC50: 9.45 µM (active)
Caspase-6
  AC50: 19 µM (active)

## C[C@@H]1CN([C@H](C)CO)C(=O)c2cc(C#Cc3cccc(F)c3)cnc2O[C@@H]1CN(C)C(=O)C1CCCCC1
[1]
  AC50: 3.19 µM (active)
[2]
  AC50: 2.91 µM (active)
[3]
  AC50: 2.16 µM (active)
[4]
  AC50: 30.1 µM (active)
[5]
  AC50: 2.66 µM (active)

## COc1ccccc1CN1CC2(C1)[C@H](c1ccccc1)[C@H](CO)N2Cc1ccccc1
[1]
  AC50: 4.14 µM (active)
[3]
  AC50: 1.96 µM (active)
[4]
  AC50: 23.9 µM (active)
[5]
  AC50: 2.85 µM (active)

## O=C(CN1C(=O)C2C3c4ccccc4C(c4ccccc43)C2C1=O)N1CCOCC1 (centres undefined)
[6]
  IC50: > 100 µM (not active)
